Like-named read-outs stand apart in the source and are kept apart here.
Key:
[1] = test system: Aβ oligomers; experiment: Native Western Blot (82E1 antibody) measurement of Aβ oligomers in patient CSF (NCT03522129); type: in vivo, human
[2] = test system: Patients; experiment: ADAS-COG score after 185 days of treatment versus placebo; type: in vivo, human; conditions: day 185, treated at least 6 months (185 days), FIG. 7
From the text: Patients treated for at least 6 months (185 days) with CT1812 were compared with patients who received placebo.

[3] = test system: amyloid β oligomers and monomers; conditions: animal models and preclinical data; cited from earlier work
[4] = Plasma and CSF pharmacokinetics from NCT03522129; type: in vivo, human; conditions: single dose of CT1812 (560 mg); for AUC(0-t) / Cmax / Kp: 560 mg; for Kp: CSF/plasma
[5] = test system: Aβ 40 and 42 monomers; experiment: Aβ 40 and 42 monomers in patient CSF after single dose (NCT03522129); type: in vivo, human; conditions: single dose 560 mg, similar in all three patients including placebo
Experimental: Methods: A Phase 2 clinical trial (NCT03522129) was conducted enrolling patients with mild-to-moderate Alzheimer's disease (MMSE 18-26) into the Randomized, double-blind, placebo-controlled, single dose administration of CT1812 followed by hourly sampling of lumbar CSF via indwelling catheter for 24 hours. The primary objective of the study was to evaluate target engagement of CT1812 treatment by measuring the displacement of Aβ oligomers into cerebrospinal fluid (CSF). The was quantified by a measuring change from the baseline CSF Aβ oligomer concentration after dosing with CT1812 versus placebo. Microimmunoelectrodes (Yuede et al 2016) coated with oligomer-specific antibody, A11 were placed in CSF samples of Alzheimer's disease patient samples to detect soluble Aβ after a single dose of CT1812 (560 mg) or placebo. […] Percent change from baseline in Aβ 40 and 42 monomers were similar in all three patients (<50% increase). […] CSF Aβ oligomer levels were fit to a linear regression and the significance of the slope difference from zero was determined for each patient (FIG. 4 (measured by microimmunoelectrodes); FIG. 5 (measured by Western Blot)).

[6] = test system: Aβ oligomers; experiment: Microimmunoelectrode (MIE) measurement of Aβ oligomers in patient CSF after single dose (NCT03522129); type: in vivo, human
Experimental: Methods: A Phase 2 clinical trial (NCT03522129) was conducted enrolling patients with mild-to-moderate Alzheimer's disease (MMSE 18-26) into the Randomized, double-blind, placebo-controlled, single dose administration of CT1812 followed by hourly sampling of lumbar CSF via indwelling catheter for 24 hours. The primary objective of the study was to evaluate target engagement of CT1812 treatment by measuring the displacement of Aβ oligomers into cerebrospinal fluid (CSF). The was quantified by a measuring change from the baseline CSF Aβ oligomer concentration after dosing with CT1812 versus placebo. Microimmunoelectrodes (Yuede et al 2016) coated with oligomer-specific antibody, A11 were placed in CSF samples of Alzheimer's disease patient samples to detect soluble Aβ after a single dose of CT1812 (560 mg) or placebo. Results: Microimmunoelectrode (MIE) measurements of Aβ oligomers in CSF show a drug-dependent rise in Aβ oligomers over time.

[7] = test system: amyloid β monomer; conditions: human subjects treated for 28 days; see 62/976,325; cited from earlier work

tmax ([4]; Plasma, Subject 90003): 2.00 h | AUC(0-t) ([4]; human, CSF, Subject 90001): 120 ng·h/mL | Cmax ([4]; human, CSF, Subject 90001): 24.9 ng/mL | AUC(0-t) ([4]; human, CSF, Subject 90003): 46.4 ng·h/mL | Cmax ([4]; human, CSF, Subject 90003): 7.27 ng/mL | Kp ([4]; human, Subject 90001, read-out: CSF/Plasma Ratio based on AUC0-last): 0.0381 | Kp ([4]; human, Subject 90001, read-out: CSF/Plasma Ratio based on Cmax): 0.0358 | Kp ([4]; human, Subject 90003, read-out: CSF/Plasma Ratio based on AUC0-last): 0.0384 | Kp ([4]; human, Subject 90003, read-out: CSF/Plasma Ratio based on Cmax): 0.0291 | AUC(0-t) ([4]; human, plasma, Subject 90001): 3160 ng·h/mL | Cmax ([4]; human, plasma, Subject 90001): 695 ng/mL | AUC(0-t) ([4]; human, plasma, Subject 90003): 1210 ng·h/mL | Cmax ([4]; human, plasma, Subject 90003): 250 ng/mL | tmax ([4]; human, CSF, Subject 90003, read-out: tmax): 3 h
Structure (SMILES): CC(C)(C)Oc1cc(CCC(C)(C)N2Cc3ccc(S(C)(=O)=O)cc3C2)ccc1O [CT1812]
linear slope of CSF Aβ oligomer level over time (Western Blot) ([1]; Patients 1 and 3, p<0.001 for each patient, R^2=0.9808 and 0.3997, placebo slope not different from zero): significantly non-zero | Aβ oligomer levels in CSF over time (Western Blot) ([1]; single dose 560 mg, hourly lumbar CSF for 24 hours, not seen in placebo patient): apparent increase with time | difference in Alzheimer's Disease Assessment Score (ADAS-COG) between treated and untreated patients [2]: three-point difference | amyloid β oligomer concentration in cerebral spinal fluid and brain interstitial fluid [3]: selectively displace oligomers and increase their concentration | concentration of amyloid β monomers [3]: had not effect | Percent change from baseline in Aβ 40 and 42 monomers (increase) [5]: < 50% | linear slope of CSF Aβ oligomer level over time (MIE) ([6]; Patients 1 and 3, p<0.001 for each patient, R^2=0.7720 and 0.7898, placebo slope not different from zero): significantly non-zero | Aβ oligomer levels in CSF over time (MIE) ([6]; single dose 560 mg, hourly lumbar CSF for 24 hours, mild-to-moderate Alzheimer's disease patients, not seen in placebo patient): apparent increase with time | Aβ oligomer increase, percent change from baseline in CSF ([6]; two treated patients, single dose 560 mg, no increase in placebo-treated patient, FIG. 4 (MIE), FIG. 5 (Western Blot)): more than 200% | amyloid β monomer concentration in the cerebral spinal fluid or interstitial fluid [7]: no change
